Source: patent publication US11059832B2, “HPK1 inhibitors and methods of using same” (University Health Network, priority 2015, dated 2021)

How the values were obtained:
[1] = tested on: ERK1/2 T202/Y204 phosphorylation in α-CD3 stimulated Jurkat E6.1 cells; assay: In vitro phosphorylation assay, ERK1/2 T202/Y204 (immunoblot); type: cell-based; conditions: Homo sapiens, 4 h pretreatment, read-out: ERK1/2 T202/Y204 Phosphorylation Onset Inhibition
Protocol: (§1) Jurkat E6.1 cells were obtained from American Type Culture Collection (ATCC, Manassas, Va.), and maintained according to the supplier's instructions. Cells were washed three times and starved in RPMI 1640 medium supplemented with 0.5% fetal calf serum for 18 h at 37° C. Serum starved cells were pretreated with the indicated concentration of inhibitor for 4 hours before stimulation with 10 μg/ml α-CD3 antibody (BioLegend, Inc., San Diego, Calif.) for 10 min at 37° C. The cells were washed once in phosphate-buffered saline (pH 7.4) containing 10 mm sodium pyrophosphate, 10 mm sodium fluoride, 10 mm EDTA, and 1 mm sodium orthovanadate. Protein lysates were prepared using ice-cold radioimmunoprecipitation assay (RIPA) lysis buffer. A total of 100 μg of cell lysate was loaded onto Bis-Tris gels (Life Technologies, Carlsbad, Calif.) with full-range molecular weight marker as a size reference, and resolved by SDS-PAGE electrophoresis. Proteins were transferred to PVDF membrane (Millipore, Billerica, Mass.), blocked and probed with antibodies for phospho-SLP-76 (Ser376) (rabbit polyclonal #13177; Cell Signaling Technology Inc., Danvers, Mass.), SLP-76 (rabbit polyclonal #4958; Cell Signaling Technology Inc., Danvers, Mass.), phospho-ERK (mouse monoclonal sc-7383; Santa Cruz Biotechnology Inc., Santa Cruz, Calif.) and ERK1/2 (rabbit polyclonal 06-182; Millipore, Billerica, Mass.). Secondary antibodies were diluted 1 in 15,000 and incubated for 1 h at rt. Protein bands were visualized and quantified using Odyssey near infrared imager (LI-COR, Lincoln, Nebr.).
(§2) Table 2 below lists effects of representative compounds of the present invention against SLP-76 serine 376 phosphorylation and ERK1/2 T202/Y204 phosphorylation in α-CD3 stimulated Jurkat E6.1 cells.

[2] = tested on: SLP-76 serine 376 phosphorylation in α-CD3 stimulated Jurkat E6.1 cells; assay: In vitro phosphorylation assay, SLP-76 Ser376 (immunoblot); type: cell-based; conditions: Homo sapiens, 4 h pretreatment, substantive = >75% inhibition as estimated by immunoblot analysis, read-out: SLP76 S376 Phosphorylation Onset-Substantive* Inhibition
Protocol: as §1, §2

CT26 WT colon carcinoma = assay: Syngeneic CT26 cell line xenograft model; type: in vivo; conditions: for Survival (tumour size <1500 mm^3 at day 21): 8 animals
Protocol: Six to eight week old female BALB/c mice were purchased from Jackson Laboratories and received and acclimated at the MaRS-TMDT Animal Resources Centre for 1 week prior to the start of the experiment. […] Mice were housed in microisolator cages and maintained in an environment with a 12 h light cycle at 20-22° C. and 40-60% humidity. On the day of implantation, CT26 cells were harvested and re-suspended with serum free RPMI1640 to a concentration of 1×10^7/mL and each mouse was injected subcutaneously with a volume of 0.1 mL containing 1×10^6 CT26 cells in the right rear flank. […] Toxicity was evaluated by body weight measurements and clinical observations. Tumour measurements and body weights were taken three times per week.
According to University Health Network (UHN) Animal Use Protocols (AUPs), mice in efficacy experiments should be sacrificed when the tumour size is above 1500 mm^3 or if the bodyweight of the animal decreases or if the animals are displaying clinical signs that require termination for humane reasons. […] A tumour size of <1500 mm^3 at day 21 was used as a cutoff to represent survival.

CN1CCN(c2ccc3nc(-c4c(N)c5ccsc5[nH]c4=O)[nH]c3c2)CC1 [Example A1, 4-amino-5-(6-(4-methylpiperazin-1-yl)-1H-benzo[d]imidazol-2-yl)thieno[2,3-b]pyridin-6(7H)-one]
minimal effective concentration [1]: > 3 µM
IC75 [2]: 300 to 1000 nM
Tumour growth inhibition (TGI) (CT26 WT colon carcinoma; 75 mg/kg QD PO for 21 days, day 21, BALB/c mice): 44%
Survival (tumour size <1500 mm^3 at day 21) (CT26 WT colon carcinoma; 75 mg/kg/day Example A1 arm): 25%
Tumour growth inhibition (TGI) (CT26 WT colon carcinoma; 150 mg/kg QD PO Example A1 combined with 150 μg anti-PD-1 antibody IP day 0, 3, 6 and 10, day 21): 86%
Tumour growth inhibition (TGI) (CT26 WT colon carcinoma; 150 mg/kg QD PO for 21 days, day 21, BALB/c mice): 64%
Survival (tumour size <1500 mm^3 at day 21) (CT26 WT colon carcinoma; 150 mg/kg/day Example A1 and anti-PD-1 arm): 87.5%
Survival (tumour size <1500 mm^3 at day 21) (CT26 WT colon carcinoma; 150 mg/kg/day Example A1 arm): 37.5%
Tolerability (body weight, clinical signs) (CT26 WT colon carcinoma; 75 and 150 mg/kg QD PO 21 days, BALB/c mice, all animals gaining weight, none terminated due to clinical signs): well tolerated
